Values of other authors as cited in patent publication US10603349B2, “Method for preparing pharmaceutical compositions of rhizomes from Alpinia galanga or Alpinia conchigera having a high content of 1′S-1′-acetoxychavicol acetate (ACA)” (NERTHUS APS, priority 2013, dated 2020).

Test system: whole-body insulin resistance
Settings: fructose-induced rat model of metabolic syndrome

Compound: O=c1c(O)c(-c2ccccc2)oc2cc(O)cc(O)c12 [Galangin, galangin]
- Blood glucose and insulin levels: dose-dependently normalized
